{"source": "patent US20140227173A1", "about": "“CANCER TREATMENT WITH GAMMA-SECRETASE INHIBITORS” (The Johns Hopkins University, priority 2006, published 2014)", "key": {"D425": {"test_system": "D425", "experiment": "Flow cytometric analysis of CD133-positive fraction", "format": "cell-based", "conditions": "2 μM", "source_text": "(§1) The effects of Notch on the CD133-positive CSC subpopulation were first examined. Singh and colleagues have shown that only CD133-positive MB and glioblastoma cells are able to form multipotent neurosphere clones or tumor xenografts (6, 12). Another type of brain tumor, ependymoma, also appears to contain a small fraction of CD133-positive cells uniquely capable of initiating tumor xenografts (9). […] The D283Med and D425Med lines, which grow in suspension, contained higher percentages of CD133 positive cells. Sorting of DAOY cultures using magnetic beads coated with antibodies specific for CD133 generated an enriched population in which 30% of cells expressed the stem cell marker, and a negative population in which less than 1% of cells were CD133-positive. […] Thus Notch signaling appears to be especially active in CSC, raising the possibility that inhibition of this pathway may target the CSC population.\n(§2) The DAOY, PFSK, D283 and D425 Med cell lines were obtained from the American Type Culture Collection. The low-passage MB line MB2 was derived from a tumor resected at Johns Hopkins Hospital. For treatment studies, cell were plated and allowed to grow overnight in MEM (Invitrogen, Carlsbad, Calif.) containing 10% FBS, then media was replaced the next morning with low serum (0.5% FBS) MEM containing GSI dissolved in DMSO. RNA and protein extractions, and all cell-based assays, were performed 48 hours after drug application unless otherwise noted. All experiments with error bars were performed in triplicate and shown as mean values with standard error unless otherwise noted. Cell mass was measured using CellTITER assays according to the manufacturer's instructions (Promega, Madison, Wis.). Cell number and viability were assessed using the Guava PCA and Viacount reagent according to instructions (Guava Technologies, Heyward, Calif.). Soft agar assays were performed as previously described (15) and scored either manually after 4 weeks or using as automated reader after 6 weeks. The constitutively active Akt stable cell line was made by transfecting DAOY cells with myristolated Akt (pCB6-IMy-Akt-HA) or control (pCB6+) plasmids (kind gifts from Susan J. Baker) and selecting and maintaining clones in 0.8 mg/ml G418. Soft agar assays were performed as previously described, with colonies counted using an automated reader (15).\n(§3) Flow cytometric analysis of S-phase fraction and cell cycle kinetics was performed using a FACSCalibur (Becton Dickinson, San Jose, Calif.) with CELL Quest, version 3.3 software (15). CD133 studies were performed using the same instrument, with antibodies from Miltenyi (Miltenyi Biotec, Auburn, Calif.) according to the manufacturer's instructions. Cells expressing levels of CD133 higher than those seen in IgG controls were considered positive. For analyses of side population, cells (10^6/ml) were incubated with Hoechst 33342 (3 μM, Molecular Probes, Carlsbad, Calif.) for 90 minutes at 37° C. in DMEM containing 2% FBS. Prior to analysis, cells were washed and resuspended in 2 μg/ml PI (Sigma, St. Louis, Mo.). Cells were analyzed on a LSR flow cytometer equipped with 424/44 nm band pass and 670 nm long pass optical filters (Omega Optical, Brattleboro, Vt.). To ensure proper identification of SP cells, cells were incubated as above with the addition of 50 μM verapamil (Sigma)."}, "PFSK": {"test_system": "PFSK", "experiment": "Flow cytometric analysis of CD133-positive fraction", "format": "cell-based", "conditions": "2 μM, p<0.01", "source_text": "as §1, §2, §3"}, "D283": {"test_system": "D283", "experiment": "Flow cytometric analysis of CD133-positive fraction", "format": "cell-based", "conditions": "2 μM", "source_text": "as §1, §2, §3"}, "DAOY [1]": {"test_system": "DAOY", "experiment": "Flow cytometric analysis of CD133-positive fraction", "format": "cell-based", "conditions": "2 μM, 48 hours", "source_text": "as §1, §2, §3"}, "DAOY [2]": {"test_system": "DAOY", "experiment": "Double immunolabeling nestin / Ki67 (proliferation)", "format": "cell-based", "conditions": "2 μM, 48 hours"}, "E3LZ10.7": {"test_system": "E3LZ10.7", "experiment": "Colony formation in soft agar after pre-treatment", "format": "cell-based, human", "procedure": "(§4) (Top) Experimental scheme illustrating pre-treatment of pancreatic cancer cell lines with GSI-18, prior to plating for soft agar assays and subcutaneous injection in athymic mice. Treatment for 24 hours with GSI-18 or vehicle is followed by recovery in full serum for a further 24 hours minus the drug. Equal numbers of viable cells from the control and treated groups are then plated for colony assays in soft agar, or injected in nude mice. Of note, during the in vitro or in vivo assays, no further drug is administered. […] The dosage required for significant inhibition of clonogenicity varies between 2 μM (Capan-1) to 5 μM (E3LZ10.7). Bar graphs represent colony counts at two weeks, with mean and standard deviations calculated from triplicate experiments. (Left) Pre-treatment with GSI-18 inhibits tumorigenicity of Panc-1 pancreatic cancer cell line in athymic mice. […] Error bars represent standard deviation of five mice per arm."}, "Panc-1": {"test_system": "Panc-1", "experiment": "Colony formation in soft agar (clonogenicity)", "format": "cell-based, human", "conditions": "colony counts at two weeks", "source_text": "(§5) Specificity of the RNA interference is confirmed by downregulation of Notch1 transcript levels with the specific siRA, but not with the scrambled controls. […] Bar graphs represent colony counts at two weeks, with mean and standard deviations calculated from triplicate experiments.\n(§6) Bar graphs represent colony counts at two weeks, with mean and standard deviations calculated from triplicate experiments."}, "Capan-1": {"test_system": "Capan-1", "experiment": "Colony formation in soft agar (clonogenicity)", "format": "cell-based, human", "source_text": "as §5, §6, §4"}, "DAOY:NICD2": {"test_system": "DAOY:NICD2", "experiment": "Side population (Hoechst 33342 excretion) flow cytometry", "format": "cell-based", "conditions": "2 μM GSI-18 or verapamil", "procedure": "(§7) The ability to excrete Hoechst dye, which defines SP (also known as “side population”) in flow cytometric analyses, is another marker of tumor-initiating CSC in the blood and brain (7, 8, 20). SP was therefore analyzed to obtain a second measure of the effects of Notch on CSC.\n(§8) Flow cytometric analysis of S-phase fraction and cell cycle kinetics was performed using a FACSCalibur (Becton Dickinson, San Jose, Calif.) with CELL Quest, version 3.3 software (15). CD133 studies were performed using the same instrument, with antibodies from Miltenyi (Miltenyi Biotec, Auburn, Calif.) according to the manufacturer's instructions. […] Prior to analysis, cells were washed and resuspended in 2 μg/ml PI (Sigma, St. Louis, Mo.). […] To ensure proper identification of SP cells, cells were incubated as above with the addition of 50 μM verapamil (Sigma)."}, "D283Med": {"test_system": "D283Med", "experiment": "Side population (Hoechst 33342 excretion) flow cytometry", "format": "cell-based", "conditions": "D283Med; 2 μM GSI-18 or verapamil", "procedure": "as §7, §8"}, "D425Med": {"test_system": "D425Med", "experiment": "Side population (Hoechst 33342 excretion) flow cytometry", "format": "cell-based", "conditions": "D425Med; 2 μM GSI-18 or verapamil", "procedure": "as §7, §8"}, "DAOY [3]": {"test_system": "DAOY", "experiment": "Side population (Hoechst 33342 excretion) flow cytometry", "format": "cell-based", "conditions": "DAOY; 2 μM; untreated SP 1.9%", "procedure": "as §7, §8"}, "[4]": {"test_system": "Panc-1 pancreatic cancer cell line", "experiment": "Tumorigenicity of pre-treated cells injected subcutaneously in athymic mice", "format": "in vivo", "conditions": "five weeks post-injection; no further drug administered; five mice per arm", "procedure": "as §4"}, "[5]": {"conditions": "24 hours pre-treatment, 24 hours recovery minus drug, colony counts at two weeks"}}}
{"smiles": "O=S(=O)(NC1C2CCC1Cc1ccccc1C2)c1cccs1", "note": "(stereo not drawn) [GSI-18, [11-endo]-N-(5,6,7,8,9,10-hexahydro-6,9-methanobenzo[α][8]annulen-11-yl)-thiophene-2-sulfonamide]", "values": [{"measurement": "decrease in the percentage of CD133-positive cells", "setting": "D425", "value": "less pronounced"}, {"measurement": "fold reduction in the percentage of CD133-positive cells", "setting": "PFSK", "value": 4.8, "unit": "fold"}, {"measurement": "decrease in the percentage of CD133-positive cells", "setting": "D283", "value": "less pronounced"}, {"measurement": "fold reduction of CD133-positive stem-like fraction", "setting": "DAOY [1]; p<0.01", "value": 3, "unit": "fold"}, {"measurement": "CD133-positive stem-like fraction after treatment", "setting": "DAOY [1]; untreated 9.9%", "value": 3.3, "unit": "%"}, {"measurement": "fraction of Ki67 positive cells in nestin-negative subpopulation", "setting": "DAOY [2]", "value": "changed only slightly"}, {"measurement": "proliferation (Ki67-positive cells) in nestin-positive subpopulation", "setting": "DAOY [2]", "value": "significant reduction in the proliferation"}, {"measurement": "colony formation following pre-treatment", "setting": "E3LZ10.7; [5]", "value": "Significant inhibition of colony formation"}, {"measurement": "dosage required for significant inhibition of clonogenicity", "setting": "E3LZ10.7; pre-treatment", "value": 5, "unit": "µM"}, {"measurement": "clonogenicity, colony formation in soft agar", "setting": "Panc-1", "value": "significant inhibition of clonogencity"}, {"measurement": "colony formation following pre-treatment", "setting": "Capan-1; [5]", "value": "Significant inhibition of colony formation"}, {"measurement": "clonogenicity, colony formation in soft agar", "setting": "Capan-1; colony counts at two weeks", "value": "significant inhibition of clonogencity"}, {"measurement": "dosage required for significant inhibition of clonogenicity", "setting": "Capan-1; pre-treatment", "value": 2, "unit": "µM"}, {"measurement": "side population under NICD2 expression", "setting": "DAOY:NICD2", "value": "protected the SP from GSI-18 exposure"}, {"measurement": "side population", "setting": "D283Med", "value": "ablated"}, {"measurement": "side population", "setting": "D425Med", "value": "ablated"}, {"measurement": "remaining cells negative for Hoechst dye (side population)", "setting": "DAOY [3]", "value": 0.01, "unit": "%"}, {"measurement": "tumor volumes from pre-treated cells", "setting": "[4]", "value": "minimal tumor volumes"}]}
